One compound from patent publication US12285394B2, “Ketogenic compounds, compositions, methods and use thereof” (9500-0535 QUEBEC INC., priority 2018, dated 2025) can be followed below.

The data set in a line: pH of the compounds. It counts as physicochemical.

Structures are written as SMILES.

Take `CC(O)CC(=O)O` (stereo not drawn) [BHB, β-hydroxybutyric acid]: the pKa is ~4.4.
